Where two headings read alike, the source gives them in different places.
Molecular target: T1, LATS2 (Homo sapiens, UniProt Q9NRM7)
T1 sequence (Q9NRM7 1-1088): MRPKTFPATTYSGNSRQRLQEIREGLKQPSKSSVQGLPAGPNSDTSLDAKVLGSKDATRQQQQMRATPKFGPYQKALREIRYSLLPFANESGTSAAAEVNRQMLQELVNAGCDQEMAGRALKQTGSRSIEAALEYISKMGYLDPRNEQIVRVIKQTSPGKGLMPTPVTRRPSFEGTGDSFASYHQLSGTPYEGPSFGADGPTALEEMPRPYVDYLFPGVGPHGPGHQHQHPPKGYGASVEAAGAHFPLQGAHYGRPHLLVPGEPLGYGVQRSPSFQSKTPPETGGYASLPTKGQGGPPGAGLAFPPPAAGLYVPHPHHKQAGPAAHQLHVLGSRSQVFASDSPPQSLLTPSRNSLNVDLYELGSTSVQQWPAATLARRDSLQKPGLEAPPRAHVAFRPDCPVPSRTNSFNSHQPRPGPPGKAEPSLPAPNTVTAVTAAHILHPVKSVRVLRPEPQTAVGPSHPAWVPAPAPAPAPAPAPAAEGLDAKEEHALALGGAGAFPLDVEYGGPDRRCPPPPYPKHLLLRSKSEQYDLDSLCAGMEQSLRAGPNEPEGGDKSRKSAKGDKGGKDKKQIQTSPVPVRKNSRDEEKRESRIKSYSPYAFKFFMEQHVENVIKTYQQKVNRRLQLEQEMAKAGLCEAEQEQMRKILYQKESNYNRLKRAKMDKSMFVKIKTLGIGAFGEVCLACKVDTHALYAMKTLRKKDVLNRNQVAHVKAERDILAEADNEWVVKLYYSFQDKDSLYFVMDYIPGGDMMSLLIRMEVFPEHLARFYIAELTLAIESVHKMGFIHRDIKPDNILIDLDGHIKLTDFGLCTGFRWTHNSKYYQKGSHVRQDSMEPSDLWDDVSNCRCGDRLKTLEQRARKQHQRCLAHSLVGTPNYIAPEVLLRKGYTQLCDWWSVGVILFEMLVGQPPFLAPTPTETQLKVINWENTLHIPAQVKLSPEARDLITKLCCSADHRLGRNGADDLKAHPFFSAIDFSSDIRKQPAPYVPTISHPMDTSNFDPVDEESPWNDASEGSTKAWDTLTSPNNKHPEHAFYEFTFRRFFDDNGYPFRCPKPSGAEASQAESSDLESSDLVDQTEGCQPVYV
Assay: Off-chip Mobility Shift Assay (MSA method), kinase inhibition
Type: biochemical
Conditions: for IC50: 10 steps from 10 μM to 0.3 nM; for inhibition at 0.1 µM: read-out: inhibition (%) LATS2
Protocol: For compound k-1:B-1, inhibitory activity evaluation (calculation of 50% inhibitory concentration (IC50)) was performed on 8 kinds of kinases (CGK2, LATS2, MSK1, p70S6K, PKACα, PKACβ, SGK2, SGK3). The activity was measured using the Off-chip Mobility Shift Assay (MSA method) described below. The compound was added such that the test concentration of k-1:B-1 was in 10 steps from the final concentration of 10 μM to 0.3 nM.
As an analysis method of the data, the mean signal of the control well containing all reaction components was set to 0% inhibition, the mean signal without enzyme addition was set to 100% inhibition, and the inhibition rate was calculated from the mean signal of 2 wells of each test substance test. The IC50 value was obtained by approximating a plot based on the test substance concentration and inhibition rate to a 4 parameter logistics curve by using the Excel Solver add-in and by the non-linear least squares method.
(§1) 5 μL of k-1:B-1 solution at 4-fold concentration, 5 μL of substrate/ATP/metal solution at 4-fold concentration, and 10 μL of kinase solution at 2-fold concentration, each prepared with assay buffer (20 mM HEPES, 0.01% Triton X-100, 2 mM DTT, pH 7.5), were mixed in the wells of a polypropylene 384-well plate and reacted at room temperature for 1 or 5 hr. Successively, 70 μL of Termination Buffer (QuickScout Screening Assist MSA; Carna Biosciences) was added to discontinue the reaction. Then, the substrate peptide and the phosphorylated peptide in the reaction solution were separated and quantified by the LabChip system (Perkin Elmer). The kinase reaction was evaluated by the resultant product ratio (P/(P+S)) calculated from the substrate peptide peak height (S) and the phosphorylated peptide peak height (P).
For compounds k-1:H-7, k-1:H-1, k-1:D-1, k-1:J-1, and k-1:B-1, inhibitory rate at 100 nM was calculated on 8 kinds of kinases (CGK2, LATS2, MSK1, p70S6K, PKACα, PKACβ, SGK2, SGK3). The activity was measured using the MSA method. As an analysis method of the data, the mean signal of the control well containing all reaction components was set to 0% inhibition, the mean signal without enzyme addition was set to 100% inhibition, and the inhibition rate was calculated from the mean signal of 2 wells of each test substance test.
as §1, with “a compound” for “k-1:B-1”
For compounds k-1:I-1, k-1:D-1, k-1:J-1, k-1:H-1, k-1:H-7, k-1:B-1, k-5:H-1, k-1:H-3, k-1:D-4 and k-1:I-10, inhibitory activity evaluation (calculation of IC50) was performed on LATS2. The activity was measured using the Off-chip Mobility Shift Assay (MSA method) described below. The compounds were added such that the test concentration of each compound was in 10 steps from the final concentration of 10 μM to 0.3 nM.
5 μL of k-1:I-1, k-1:D-1, k-1:J-1, k-1:H-1, k-1:H-7, k-1:B-1, k-5:H-1, k-1:H-3, k-1:D-4 and k-1:I-10 solutions at 4-fold concentration, 5 μL of substrate/ATP/metal solution at 4-fold concentration, and 10 μL of kinase solution at 2-fold concentration, each prepared with assay buffer (20 mM HEPES, 0.01% Triton X-100, 2 mM DTT, pH 7.5), were mixed in the wells of a polypropylene 384-well plate and reacted at room temperature for 1 or 5 hr. […]

| Compound | IC50 (MSA method) | inhibition at 0.1 µM (at 100 nM, MSA method) | inhibition at 0.1 µM |
| --- | --- | --- | --- |
| CC/C(=N\NC(=O)CNc1cccc(O)c1)c1ccc(O)c(C)c1O [k-1:D-1] | 1.84 nM | – | 101% |
| CCC(=NNC(=O)CNc1ccccc1)c1ccc(O)c(C)c1O [k-1:H-1] | 12.9 nM | 92.1% | – |
| CC/C(=N\NC(=O)NCc1cccc(O)c1)c1ccc(O)c(C)c1O [k-1:J-1] | 5.26 nM | – | 96.2% |

Now from value to compound, other results behind:

| IC50 (MSA method) | inhibition at 0.1 µM (at 100 nM, MSA method) | Compound | inhibition at 0.1 µM |
| --- | --- | --- | --- |
| 6.57 nM | 95.8% | CCC(=NNC(=O)C(CC)Nc1ccccc1)c1ccc(O)c(C)c1O (stereo not shown) [k-1:H-7] | – |
| 5.12 nM | 93.8% | CC/C(=N\NC(=O)C(C)Nc1ccccc1)c1ccc(O)c(C)c1O (stereo not shown) [k-1:B-1] | – |
